{"source": "patent US20210069173A1", "about": "“PREPARATION OF (-)-COCAINE HYDROCHLORIDE” (Cody Laboratories, Inc., priority 2018, published 2021)", "key": {"[1]": {"test": "Distribution, metabolism and excretion of cocaine"}, "mice": {"tested_on": "mice", "settings": "cited from earlier work"}, "[2]": {"settings": "cited from earlier work"}, "experimental animals": {"tested_on": "experimental animals", "settings": "cited from earlier work"}, "mucous membranes": {"tested_on": "mucous membranes", "test": "Topical anesthesia of mucous membranes by pledget administration", "assay_type": "in vivo, human", "settings": "applied to mucous membranes by pledget, depends on concentration, vascularity", "procedure": "When applied to mucous membranes by pledget administration, topical anesthesia develops rapidly and persists for 30 minutes or longer depending on the concentration of cocaine HCl solution used, the dose, and on the vascularity of the tissue."}}, "note": "Structures can show the parent of a compound that is named as a salt.", "data": [{"smiles": "COC(=O)[C@H]1[C@@H](OC(=O)c2ccccc2)C[C@@H]2CC[C@H]1N2", "note": "[norcocaine]", "values": [{"measurement": "total systemic exposure relative to cocaine", "setting": "[1]; in vivo", "value": "less than one percent"}]}, {"smiles": "COC(=O)[C@H]1[C@@H](OC(=O)c2ccccc2)C[C@@H]2CC[C@H]1N2C", "note": "[Cocaine, methyl (1R,2R,3S,5S)-3-(benzoyloxy)-8-methyl-8-azabicyclo[3.2.1]octane-2-carboxylate]", "values": [{"measurement": "potency in producing increases in locomotor activity", "setting": "mice; cocaine versus cocaethylene", "value": "more potent than cocaethylene"}, {"measurement": "metabolism by hydrolysis to ecgonine", "setting": "[2]; by carboxylesterase-2", "value": "minimally metabolized"}, {"measurement": "fraction metabolized by hydrolysis to benzoylecgonine", "setting": "[2]; by hepatic carboxylesterase-1", "value": "40-45%"}, {"measurement": "fraction metabolized by hydrolysis to ecgonine methyl ester", "setting": "[2]; by plasma butyrylcholinesterase and hepatic carboxylesterase-2", "value": "40-45%"}, {"measurement": "fraction N-demethylated to norcocaine", "setting": "[2]; by the CYP3A4 enzyme system", "value": "5-10%"}, {"measurement": "volume of distribution", "setting": "[2]; in vivo", "value": "approximately 2 L/kg"}, {"measurement": "fraction eliminated unchanged in the urine", "setting": "[1]; human, urine", "value": "< 5", "unit": "%"}]}, {"smiles": "CCOC(=O)[C@H]1[C@@H](OC(=O)c2ccccc2)C[C@@H]2CC[C@H]1N2C", "note": "[ethyl cocaine, ethyl (1R,2R,3S,5S)-3-(benzoyloxy)-8-methyl-8-azabicyclo[3.2.1]octane-2-carboxylate]", "values": [{"measurement": "potency in producing convulsions", "setting": "mice; cocaine versus cocaethylene", "value": "equipotent"}, {"measurement": "potency in producing lethality", "setting": "mice; ethyl cocaine versus cocaine", "value": "more potent than cocaine"}, {"measurement": "elimination half-life (comparative)", "setting": "experimental animals", "value": "longer elimination half-life"}, {"measurement": "volume of distribution (comparative)", "setting": "experimental animals", "value": "larger volume of distribution"}, {"measurement": "toxicity and arrhythmogenicity", "setting": "experimental animals; versus cocaine or ethanol alone", "value": "more toxic and arrhythmogenic than either substance alone"}]}, {"smiles": "COC(=O)[C@H]1[C@@H](OC(=O)c2ccccc2)C[C@@H]2CC[C@H]1N2C", "note": "[cocaine HCl, methyl (1R,2R,3S,5S)-3-(benzoyloxy)-8-methyl-8-azabicyclo[3.2.1]octane-2-carboxylate hydrochloride]", "values": [{"measurement": "persistence of topical anesthesia", "setting": "mucous membranes", "value": "≥ 30", "unit": "min"}]}]}
